≈ marks a conversion by molar mass, not a printed value.

The assay deals with A. baumannii strain ATCC19606. In words: Minimum inhibitory concentration (MIC) determination, microbroth dilution (CLSI). Format: cell-based. The following applies: Acinetobacter baumannii; A. baumannii ATCC19606; CAMHB; read after 20 hours; >=80% growth inhibition; read-out: ATCC19606 MIC. How it is done:
The in vitro antimicrobial activity of the compounds was determined through microbroth minimum inhibitory concentration (MIC) methodology performed according to the Clinical and Laboratory Standard Institute guidelines (CLSI—M07-A9 Jan. 2012. Methods for Dilution Antimicrobial Susceptibility Tests for Bacteria That Grow Aerobically; Approved Standard—Ninth Edition, Clinical and Laboratory Standards Institute, Wayne/PA, US and the CLSI—M100-S24 Jan. 2014. Performance Standards for Antimicrobial Susceptibility Testing; Approved Standard—Fourth Informational Supplement, Clinical and Laboratory Standards Institute, Wayne/PA, US).
The compound stock solution was freshly prepared at 10× the required top concentration for the MIC determination, i.e. at 1280 mg/L, by reconstitution of the dry compound in 50:50 water:DMSO.
Polystyrene non-treated 96 wells microtiter plates were used for preparing panel containing compound serial twofold diluted at two times the final testing concentration (e.g. range from 64 to 0.06 μg/ml) in cation adjusted Mueller Hinton broth medium (CAMHB).
Inoculum was prepared by the “direct colony suspension method”. Colonies of A. baumannii ATCC19606 or clinical isolates were suspended in saline solution and adjusted to 0.5 McFarland, diluted 100 times in CAMHB broth and 50 μl added to each well (final concentration of cells ˜5×10^(5) CFU/ml and Final volume/well of 100 μl). Microtiter plates were sealed and incubated at 35±2° C.
MICs values were read after 20 hours of incubation and recorded as the lowest concentration of the antimicrobial that inhibits more or equal to 80% of growth of the organism as detected by the unaided eye and using a microtiter plate optical density reader (OD 600 nm).
Tables 2, 3, 4 and 5 provide the minimum inhibitory concentration (MIC) in microgram per milliliter of the compounds of present invention obtained against the A. baumannii strain ATCC19606 (Tables 2, 3, 4 and 5).
Consider `C[C@@H]1NC(=O)[C@H](Cc2c[nH]c3ccccc23)N(C)C(=O)[C@H](CCCCN)NC(=O)[C@H](CCCN)NCc2ccccc2Sc2ccc(Cl)cc21` [Example 20, (9S,12S,15S,18S)-15-(4-Amino-butyl)-18-(3-amino-propyl)-6-chloro-12-(1H-indol-3-ylmethyl)-9,13-dimethyl-2-thia-10,13,16,19-tetraaza-tricyclo[19.4.0.0*3,8*]pentacosa-1(25),3,5,7,21,23-hexaene-11,14,17-trione], for which the MIC is 2 µg/mL (≈ 2.78 µM).
The figure for `CN1C(=O)[C@H](CCCCN)NC(=O)[C@H](CCCN)NCc2cccnc2Sc2c(Cl)ccc(-c3ccc(S(N)(=O)=O)cc3)c2CNC(=O)[C@@H]1Cc1c[nH]c2ccccc12` [Example 224, 4-[(11S,14S,17S)-14-(4-Amino-butyl)-11-(3-amino-propyl)-25-chloro-17-(1H-indol-3-ylmethyl)-16-methyl-12,15,18-trioxo-2-thia-4,10,13,16,19-pentaaza-tricyclo[19.4.0.0*3,8*]pentacosa-1(21),3,5,7,22,24-hexaen-22-yl]-benzenesulfonamide] is 0.12 µg/mL (≈ 0.139 µM).
The same measure for `CN1C(=O)[C@H](CCCCN)NC(=O)[C@H](CCCN)NCc2ccccc2Sc2c(cc(Cl)cc2C(F)(F)F)CNC(=O)[C@@H]1Cc1c[nH]c2ccccc12` [Example 31, (12S,15S,18S)-15-(4-Amino-butyl)-18-(3-amino-propyl)-6-chloro-12-(1H-indol-3-ylmethyl)-13-methyl-4-trifluoromethyl-2-thia-10,13,16,19-tetraaza-tricyclo[19.4.0.0*3,8*]pentacosa-1(25),3,5,7,21,23-hexaene-11,14,17-trione]: 1 µg/mL (≈ 1.29 µM); for `CN1C(=O)[C@H](CCCCN)NC(=O)[C@H](CCCN)NCc2cccnc2Sc2ccc(Cl)c(Cl)c2CNC(=O)[C@@H]1Cc1c[nH]c2ccccc12` [Example 37, (11S,14S,17S)-14-(4-Amino-butyl)-11-(3-amino-propyl)-22,23-dichloro-17-(1H-indol-3-ylmethyl)-16-methyl-2-thia-4,10,13,16,19-pentaaza-tricyclo[19.4.0.0*3,8*]pentacosa-1(25),3,5,7,21,23-hexaene-12,15,18-trione]: 2 µg/mL (≈ 2.7 µM); for `CN1C(=O)[C@H](CCCCN)NC(=O)[C@H](CCCN)NCc2cccnc2Sc2c(Cl)cc(N3CCCC3)cc2CNC(=O)[C@@H]1Cc1c[nH]c2ccccc12` [Example 130, (11S,14S,17S)-14-(4-Amino-butyl)-11-(3-amino-propyl)-25-chloro-17-(1H-indol-3-ylmethyl)-16-methyl-23-pyrrolidin-1-yl-2-thia-4,10,13,16,19-pentaaza-tricyclo[19.4.0.0*3,8*]pentacosa-1(25),3(8),4,6,21,23-hexaene-12,15,18-trione]: 1 µg/mL (≈ 1.29 µM).
For the molecule `CN1C(=O)[C@H](CCCCN)NC(=O)[C@H](CCCN)NCc2cccnc2Sc2c(Cl)cc(-c3ccccc3)cc2CNC(=O)[C@@H]1Cc1c[nH]c2ccccc12` [Example 149], the MIC came out at 1 µg/mL (≈ 1.28 µM).
The same measure for `CC(C)c1ccc2c(c1)CNC(=O)[C@H](Cc1c[nH]c3ccccc13)N(C)C(=O)[C@H](CCCCN)NC(=O)[C@H](CCCN)NCc1ccccc1S2` [Example 72, (12S,15S,18S)-15-(4-Amino-butyl)-18-(3-amino-propyl)-12-(1H-indol-3-ylmethyl)-6-isopropyl-13-methyl-2-thia-10,13,16,19-tetraaza-tricyclo[19.4.0.0*3,8*]pentacosa-1(25),3,5,7,21,23-hexaene-11,14,17-trione]: 64 µg/mL (≈ 89.9 µM); for `CN1C(=O)[C@H](CCCCN)NC(=O)[C@H](CCC(N)=O)NCc2cccnc2Sc2c(Cl)ccc(-c3cccnc3)c2CNC(=O)[C@@H]1Cc1c[nH]c2ccccc12` [Example 221, 3-[(11S,14S,17S)-14-(4-Amino-butyl)-25-chloro-17-(1H-indol-3-ylmethyl)-16-methyl-12,15,18-trioxo-22-pyridin-3-yl-2-thia-4,10,13,16,19-pentaaza-tricyclo[19.4.0.0*3,8*]pentacosa-1(25),3(8),4,6,21,23-hexaen-11-yl]-propionamide]: 0.25 µg/mL (≈ 0.314 µM).
Consider `CN1C(=O)[C@H](CCCCN)NC(=O)[C@H](CCCN)NCc2cccnc2Sc2c(Cl)ccc(-c3ccccc3)c2CNC(=O)[C@@H]1Cc1c[nH]c2ccccc12` [Example 129, (11S,14S,17S)-14-(4-Amino-butyl)-11-(3-amino-propyl)-25-chloro-17-(1H-indol-3-ylmethyl)-16-methyl-22-phenyl-2-thia-4,10,13,16,19-pentaaza-tricyclo[19.4.0.0*3,8*]pentacosa-1(25),3(8),4,6,21,23-hexaene-12,15,18-trione], for which the MIC was 0.25 µg/mL (≈ 0.32 µM).
The figure for `CN1C(=O)[C@H](CCCCN)NC(=O)[C@H](CCCN)NCc2cccnc2Sc2c(Cl)cc(C#N)cc2CNC(=O)[C@@H]1Cc1c[nH]c2ccccc12` [Example 185, (11S,14S,17S)-14-(4-Amino-butyl)-11-(3-amino-propyl)-25-chloro-17-(1H-indol-3-ylmethyl)-16-methyl-12,15,18-trioxo-2-thia-4,10,13,16,19-pentaaza-tricyclo[19.4.0.0*3,8*]pentacosa-1(25),3(8),4,6,21,23-hexaene-23-carbonitrile] is 0.5 µg/mL (≈ 0.685 µM); for `CN1C(=O)[C@H](CCCCN)NC(=O)[C@H](CCCN)NCc2cccnc2Sc2c(F)ccc(F)c2CNC(=O)[C@@H]1Cc1c[nH]c2ccccc12` [Example 40, (11S,14S,17S)-14-(4-Amino-butyl)-1-(3-amino-propyl)-22,25-difluoro-17-(1H-indol-3-ylmethyl)-16-methyl-2-thia-4,10,13,16,19-pentaaza-tricyclo[19.4.0.0*3,8*]pentacosa-1(25),3(8),4,6,21,23-hexaene-12,15,18-trione] it is 0.5 µg/mL (≈ 0.707 µM).
The figure for `CN1C(=O)[C@H](CCCCN)NC(=O)[C@H](CCCN)NCc2cccnc2Sc2c(Cl)cc(-c3cnccn3)cc2CNC(=O)[C@@H]1Cc1c[nH]c2ccccc12` [Example 146, (11S,14S,17S)-14-(4-Amino-butyl)-11-(3-amino-propyl)-25-chloro-17-(1H-indol-3-ylmethyl)-16-methyl-23-pyrazin-2-yl-2-thia-4,10,13,16,19-pentaaza-tricyclo[19.4.0.0*3,8*]pentacosa-1(25),3(8),4,6,21,23-hexaene-12,15,18-trione] is 1 µg/mL (≈ 1.28 µM).
The figure for `CN1C(=O)[C@H](CCCCN)NC(=O)[C@H](CCCN)NCc2ccccc2Sc2ccc(F)cc2CNC(=O)[C@@H]1Cc1c[nH]c2ccccc12` [Example 47, (12S,15S,18S)-15-(4-Amino-butyl)-18-(3-amino-propyl)-6-fluoro-12-(1H-indol-3-ylmethyl)-13-methyl-2-thia-10,13,16,19-tetraaza-tricyclo[19.4.0.0*3,8*]pentacosa-1(25),3,5,7,21,23-hexaene-11,14,17-trione] is 4 µg/mL (≈ 5.81 µM); for `CN1C(=O)[C@H](CCCCN)NC(=O)[C@H](CCCN)NCc2ccccc2Sc2c(-c3ccccc3)ncc(Cl)c2CNC(=O)[C@@H]1Cc1c[nH]c2ccccc12` [Example 189] it is 4 µg/mL (≈ 5.12 µM).
Regarding `CCN1C(=O)[C@H](CCCCN)NC(=O)[C@H](CCCN)NCc2cccnc2Sc2c(Cl)cc(Cl)cc2CNC(=O)[C@@H]1Cc1c[nH]c2ccccc12` [Example 80, (11S,14S,17S)-14-(4-Amino-butyl)-11-(3-amino-propyl)-23,25-dichloro-16-ethyl-17-(1H-indol-3-ylmethyl)-2-thia-4,10,13,16,19-pentaaza-tricyclo[19.4.0.0*3,8*]pentacosa-1(25),3(8),4,6,21,23-hexaene-12,15,18-trione], the minimum inhibitory concentration (MIC) was 0.12 µg/mL (≈ 0.159 µM).

For orientation: MIC means the smallest concentration in the dilution series that meets the test's criterion for growth inhibition.

(Values after patent US10030047B2 (Hoffmann-La Roche Inc., priority 2015, dated 2018).)
